Data taken from ChEMBL document CHEMBL1201861, “Genomics of Drug Sensitity in Cancer screening data, Wellcome Trust Sanger Institute”.

Tests used:
Test in all cases: cells
[1] = system: GR-ST; format: functional, cell-based; details: Homo sapiens
Description: SANGER: Inhibition of human GR-ST cell growth in a cell viability assay.

[2] = system: LB831-BLC; format: functional, cell-based, Homo sapiens; details: Homo sapiens, LB831-BLC;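 also: growth inhibition of LB831-BLC cells, read out with a cell viability assay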
Description: SANGER: Inhibition of human LB831-BLC cell growth in a cell viability assay.

[3] = system: SW1573; format: functional, cell-based, Homo sapiens; details: Homo sapiens, SW1573;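 also: growth inhibition of SW1573 cells, read out with a cell viability assay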
Description: SANGER: Inhibition of human SW1573 cell growth in a cell viability assay.

[4] = system: MC116; format: functional, cell-based; details: Homo sapiens;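 also: growth inhibition of MC116 cells, read out with a cell viability assay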
Description: SANGER: Inhibition of human MC116 cell growth in a cell viability assay.

[5] = system: G-401; format: functional, cell-based, Homo sapiens; details: Homo sapiens, G-401
Description: SANGER: Inhibition of human G-401 cell growth in a cell viability assay.

[6] = system: NCI-H1092; format: functional, cell-based; details: Homo sapiens;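 also: cell growth inhibition measured with a cell viability assay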
Description: SANGER: Inhibition of human NCI-H1092 cell growth in a cell viability assay.

[7] = system: ML-2; format: functional, cell-based; details: Homo sapiens;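 also: growth inhibition of ML-2 cells, measured with a cell viability readout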
Description: SANGER: Inhibition of human ML-2 cell growth in a cell viability assay.

[8] = system: RPMI-8226; format: functional, cell-based; details: Homo sapiens
Description: SANGER: Inhibition of human RPMI-8226 cell growth in a cell viability assay.

[9] = system: MSTO-211H; format: functional, cell-based, Homo sapiens; details: Homo sapiens, MSTO-211H
Description: SANGER: Inhibition of human MSTO-211H cell growth in a cell viability assay.

[10] = system: SNU-449; format: functional, cell-based, Homo sapiens; details: Homo sapiens, SNU-449
Description: SANGER: Inhibition of human SNU-449 cell growth in a cell viability assay.

[11] = system: COLO-679; format: functional, cell-based, Homo sapiens; details: Homo sapiens, COLO-679
Description: SANGER: Inhibition of human COLO-679 cell growth in a cell viability assay.

[12] = system: Becker; format: functional, cell-based, Homo sapiens; details: Homo sapiens, Becker;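 also: growth inhibition of Becker cells, read out with a cell viability assay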
Description: SANGER: Inhibition of human Becker cell growth in a cell viability assay.

[13] = system: MDA-MB-175-VII; format: functional, cell-based, Homo sapiens; details: Homo sapiens, MDA-MB-175-VII
[14] = system: NCI-H209; format: functional, cell-based; details: Homo sapiens;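 also: growth inhibition of human NCI-H209 cells, measured by a cell viability assay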
Description: SANGER: Inhibition of human NCI-H209 cell growth in a cell viability assay.

[15] = system: HuCCT-1; format: functional, cell-based, Homo sapiens, HuCCT1; details: Homo sapiens, HuCCT-1;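 also: growth inhibition of HuCCT-1 cells, read out by a cell viability assay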
Description: SANGER: Inhibition of human HuCCT1 cell growth in a cell viability assay.

[16] = system: SJSA-1; format: functional, cell-based, Homo sapiens; details: Homo sapiens, SJSA-1;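 also: growth inhibition of human SJSA-1 cells, read out through a cell viability measurement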
Description: SANGER: Inhibition of human SJSA-1 cell growth in a cell viability assay.

[17] = system: LB2241-RCC; format: functional, cell-based, Homo sapiens; details: Homo sapiens, LB2241-RCC;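 also: cell viability assay measuring how strongly the cultured human renal carcinoma line is prevented from growing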
Description: SANGER: Inhibition of human LB2241-RCC cell growth in a cell viability assay.

[18] = system: TCC-SUP; format: functional, cell-based, Homo sapiens; details: Homo sapiens, TCC-SUP;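 also: growth inhibition of TCC-SUP cells, read out with a cell viability assay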
Description: SANGER: Inhibition of human TCCSUP cell growth in a cell viability assay.

[19] = system: EW-3; format: functional, cell-based; details: Homo sapiens;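 also: cell viability assay read-out, IC50 reflects inhibition of growth of the EW-3 cells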
Description: SANGER: Inhibition of human EW-3 cell growth in a cell viability assay.

[20] = system: HL-60; format: functional, cell-based; details: Homo sapiens;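 also: growth inhibition of human HL-60 cells, read out with a cell viability assay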
Description: SANGER: Inhibition of human HL-60 cell growth in a cell viability assay.

[21] = system: SW13; format: functional, cell-based, Homo sapiens; details: Homo sapiens, SW13;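 also: IC50 is inhibition of SW13 cell growth, read out with a cell viability assay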
Description: SANGER: Inhibition of human SW13 cell growth in a cell viability assay.

[22] = system: TGW; format: functional, cell-based; details: Homo sapiens;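 also: growth inhibition of human TGW cells, read out with a cell viability assay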
Description: SANGER: Inhibition of human TGW cell growth in a cell viability assay.

[23] = system: IST-SL1; format: functional, cell-based, Homo sapiens; details: Homo sapiens, IST-SL1;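 also: growth inhibition of human IST-SL1 cells, read out with a cell viability assay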
Description: SANGER: Inhibition of human IST-SL1 cell growth in a cell viability assay.

[24] = system: A498; format: functional, cell-based, Homo sapiens; details: Homo sapiens, A498;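 also: growth inhibition of human A498 cells, read out with a cell viability assay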
Description: SANGER: Inhibition of human A498 cell growth in a cell viability assay.

[25] = system: H4; format: functional, cell-based; details: Homo sapiens
Description: SANGER: Inhibition of human H4 cell growth in a cell viability assay.

[26] = system: HTC-C3; format: functional, cell-based, Homo sapiens; details: Homo sapiens, HTC-C3;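 also: inhibition of cell growth, read out with a cell viability assay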
Description: SANGER: Inhibition of human HTC-C3 cell growth in a cell viability assay.

[27] = system: JVM-3; format: functional, cell-based; details: Homo sapiens;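 also: growth inhibition of human JVM-3 cells, read out with a cell viability assay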
Description: SANGER: Inhibition of human JVM-3 cell growth in a cell viability assay.

[28] = system: BB49-HNC; format: functional, cell-based, Homo sapiens; details: Homo sapiens, BB49-HNC;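 also: cell viability assay read-out, reported as inhibition of BB49-HNC cell growth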
Description: SANGER: Inhibition of human BB49-HNC cell growth in a cell viability assay.

[29] = system: SHP77; format: functional, cell-based, Homo sapiens, SHP-77; details: Homo sapiens, SHP77;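 also: growth inhibition of human SHP-77 cells measured by a cell viability assay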
Description: SANGER: Inhibition of human SHP-77 cell growth in a cell viability assay.

[30] = system: OAW-42; format: functional, cell-based, Homo sapiens; details: Homo sapiens, OAW-42;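 also: growth inhibition of OAW-42 cells, read out with a cell viability assay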
Description: SANGER: Inhibition of human OAW-42 cell growth in a cell viability assay.

[31] = system: CAL-62; format: functional, cell-based, Homo sapiens; details: Homo sapiens, CAL-62;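 also: growth inhibition of CAL-62 cells, read out with a cell viability assay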
Description: SANGER: Inhibition of human CAL-62 cell growth in a cell viability assay.

[32] = system: SF-539; format: functional, cell-based, Homo sapiens; details: Homo sapiens, SF-539;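 also: Read-out is a cell viability assay, with IC50 reflecting inhibition of cell growth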
Description: SANGER: Inhibition of human SF539 cell growth in a cell viability assay.

[33] = system: NY; format: functional, cell-based, Homo sapiens; details: Homo sapiens, NY
Description: SANGER: Inhibition of human NY cell growth in a cell viability assay.

[34] = system: A253 cell line; format: functional, cell-based, Homo sapiens; details: Homo sapiens, A253;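 also: growth inhibition of A253 cells, read out with a cell viability assay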
Description: SANGER: Inhibition of human A253 cell growth in a cell viability assay.

[35] = system: SCC-15; format: functional, cell-based, Homo sapiens; details: Homo sapiens, SCC-15;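 also: growth inhibition of SCC-15 cells, read out with a cell viability assay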
Description: SANGER: Inhibition of human SCC-15 cell growth in a cell viability assay.

[36] = system: MHH-PREB-1; format: functional, cell-based; details: Homo sapiens;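 also: cell viability assay measuring inhibition of proliferation of human MHH-PREB-1 cells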
Description: SANGER: Inhibition of human MHH-PREB-1 cell growth in a cell viability assay.

[37] = system: ATN-1; format: functional, cell-based; details: Homo sapiens;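 also: growth inhibition of human ATN-1 cells, read out with a cell viability assay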
Description: SANGER: Inhibition of human ATN-1 cell growth in a cell viability assay.

[38] = system: NCI-H1755; format: functional, cell-based, Homo sapiens; details: Homo sapiens, NCI-H1755;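 also: cell viability readout used to measure growth inhibition of NCI-H1755 cells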
Description: SANGER: Inhibition of human NCI-H1755 cell growth in a cell viability assay.

[39] = system: 647-V; format: functional, cell-based, Homo sapiens; details: Homo sapiens, 647-V;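 also: growth inhibition of 647-V cells, read out with a cell viability assay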
Description: SANGER: Inhibition of human 647-V cell growth in a cell viability assay.

[40] = system: SK-NEP-1; format: functional, cell-based; details: Homo sapiens;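 also: growth inhibition of human SK-NEP-1 cells, read out by a cell viability assay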
Description: SANGER: Inhibition of human SK-NEP-1 cell growth in a cell viability assay.

[41] = system: A4-Fuk; format: functional, cell-based; details: Homo sapiens;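 also: growth inhibition of A4-Fuk cells, read out by a cell viability assay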
Description: SANGER: Inhibition of human A4-Fuk cell growth in a cell viability assay.

[42] = system: NCI-H1651; format: functional, cell-based, Homo sapiens; details: Homo sapiens, NCI-H1651;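 also: Read-out is a cell viability assay, with IC50 expressing inhibition of NCI-H1651 cell growth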
Description: SANGER: Inhibition of human NCI-H1651 cell growth in a cell viability assay.

[43] = system: DEL; format: functional, cell-based; details: Homo sapiens;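 also: growth inhibition of the human DEL cell line, read out with a cell viability assay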
Description: SANGER: Inhibition of human DEL cell growth in a cell viability assay.

[44] = system: HCE-4; format: functional, cell-based, Homo sapiens; details: Homo sapiens, HCE-4;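 also: cell viability assay measuring inhibition of growth in the human HCE-4 cell line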
Description: SANGER: Inhibition of human HCE-4 cell growth in a cell viability assay.

[45] = system: P30-OHK; format: functional, cell-based; details: Homo sapiens;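 also: growth inhibition of the P30-OHK cell line, read out with a cell viability assay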
Description: SANGER: Inhibition of human P30-OHK cell growth in a cell viability assay.

[46] = system: YKG-1; format: functional, cell-based, Homo sapiens; details: Homo sapiens, YKG-1;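 also: cell growth inhibition, read out with a viability assay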
Description: SANGER: Inhibition of human YKG-1 cell growth in a cell viability assay.

[47] = system: LS-513; format: functional, cell-based, Homo sapiens; details: Homo sapiens, LS-513
Description: SANGER: Inhibition of human LS-513 cell growth in a cell viability assay.

[48] = system: BCPAP; format: functional, cell-based, Homo sapiens; details: Homo sapiens, BCPAP;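 also: growth inhibition of BCPAP cells, read out in a cell viability assay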
Description: SANGER: Inhibition of human BCPAP cell growth in a cell viability assay.

[49] = system: LB373-MEL-D; format: functional, cell-based, Homo sapiens; details: Homo sapiens, LB373-MEL-D;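 also: growth inhibition of the cell line, read out in a cell viability assay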
Description: SANGER: Inhibition of human LB373-MEL-D cell growth in a cell viability assay.

[50] = system: SK-UT-1; format: functional, cell-based, Homo sapiens; details: Homo sapiens, SK-UT-1;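 also: growth inhibition of SK-UT-1 cells, measured by a cell viability assay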
Description: SANGER: Inhibition of human SK-UT-1 cell growth in a cell viability assay.

[51] = system: D-336MG; format: functional, cell-based, Homo sapiens; details: Homo sapiens, D-336MG
Description: SANGER: Inhibition of human D-336MG cell growth in a cell viability assay.

[52] = system: EW-24; format: functional, cell-based; details: Homo sapiens;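 also: human EW-24 cancer cell line, growth inhibition read out via a cell viability assay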
Description: SANGER: Inhibition of human EW-24 cell growth in a cell viability assay.

[53] = system: HC-1; format: functional, cell-based; details: Homo sapiens;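 also: growth inhibition of HC-1 cells measured by a cell viability assay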
Description: SANGER: Inhibition of human HC-1 cell growth in a cell viability assay.

COc1ccc(-c2ccc3c(N4CCOC[C@@H]4C)nc(N4CCOC[C@@H]4C)nc3n2)cc1CO [AZD-8055]
IC50 [1]: 530 nM | IC50 [2]: 1390 nM | IC50 [3]: 1600 nM | IC50 [4]: > 2000 nM | IC50 [5]: 310 nM | IC50 [6]: 1130 nM | IC50 [7]: 585 nM | IC50 [8]: 286 nM | IC50 [9]: 578 nM | IC50 [10]: 959 nM | IC50 [11]: > 2000 nM | IC50 [12]: 1520 nM | IC50 [13]: 577 nM | IC50 [14]: 54.5 nM | IC50 [15]: > 2000 nM | IC50 [16]: 446 nM | IC50 [17]: 302 nM | IC50 [18]: 1470 nM | IC50 [19]: 40.6 nM | IC50 [20]: 604 nM | IC50 [21]: 984 nM | IC50 [22]: > 2000 nM | IC50 [23]: > 2000 nM | IC50 [24]: > 2000 nM | IC50 [25]: 601 nM | IC50 [26]: 732 nM | IC50 [27]: 463 nM | IC50 [28]: 1750 nM | IC50 [29]: > 2000 nM | IC50 [30]: 592 nM | IC50 [31]: 799 nM | IC50 [32]: 1580 nM | IC50 [33]: > 2000 nM | IC50 [34]: > 2000 nM | IC50 [35]: 1170 nM | IC50 [36]: 747 nM | IC50 [37]: 706 nM | IC50 [38]: 1140 nM | IC50 [39]: 1540 nM | IC50 [40]: 625 nM | IC50 [41]: 1200 nM | IC50 [42]: > 2000 nM | IC50 [43]: 968 nM | IC50 [44]: > 2000 nM | IC50 [45]: 327 nM | IC50 [46]: 1610 nM | IC50 [47]: > 2000 nM | IC50 [48]: 588 nM

CCC(=O)N1CCN(c2ccc(-n3c(=O)ccc4cnc5ccc(-c6cnc7ccccc7c6)cc5c43)cc2C(F)(F)F)CC1 [TORIN1]
IC50 [1]: 26.5 nM | IC50 [2]: 161 nM | IC50 [49]: 155 nM | IC50 [4]: 26.8 nM | IC50 [6]: > 1200 nM | IC50 [7]: 140 nM | IC50 [8]: 6.51 nM | IC50 [9]: > 1200 nM | IC50 [12]: 64.2 nM | IC50 [14]: 230 nM | IC50 [50]: 22.6 nM | IC50 [16]: 41.9 nM | IC50 [17]: > 1200 nM | IC50 [19]: 217 nM | IC50 [20]: 149 nM | IC50 [22]: 375 nM | IC50 [23]: 858 nM | IC50 [24]: > 1200 nM | IC50 [27]: > 1200 nM | IC50 [51]: 266 nM | IC50 [28]: 136 nM | IC50 [29]: > 1200 nM | IC50 [32]: 984 nM | IC50 [34]: 989 nM | IC50 [35]: > 1200 nM | IC50 [36]: 18.2 nM | IC50 [37]: 27.9 nM | IC50 [40]: 161 nM | IC50 [41]: 13.2 nM | IC50 [43]: 28.1 nM | IC50 [52]: > 1200 nM | IC50 [44]: 38.6 nM | IC50 [45]: > 1200 nM | IC50 [53]: 58.3 nM | IC50 [47]: 391 nM

Cc1cc(Nc2cc(N3CCN(C)CC3)nc(Sc3ccc(NC(=O)C4CC4)cc3)n2)n[nH]1 [TOZASERTIB]
IC50 [1]: > 2000 nM | IC50 [2]: > 2000 nM | IC50 [49]: > 2000 nM | IC50 [4]: 850 nM | IC50 [6]: > 2000 nM | IC50 [7]: 903 nM | IC50 [8]: > 2000 nM | IC50 [9]: > 2000 nM | IC50 [12]: > 2000 nM | IC50 [14]: > 2000 nM | IC50 [50]: 160 nM | IC50 [16]: > 2000 nM | IC50 [17]: > 2000 nM | IC50 [19]: > 2000 nM | IC50 [20]: 1070 nM | IC50 [22]: > 2000 nM | IC50 [23]: > 2000 nM | IC50 [24]: > 2000 nM | IC50 [27]: > 2000 nM | IC50 [51]: > 2000 nM | IC50 [28]: > 2000 nM | IC50 [29]: > 2000 nM | IC50 [32]: > 2000 nM | IC50 [34]: > 2000 nM | IC50 [35]: > 2000 nM | IC50 [36]: > 2000 nM | IC50 [37]: > 2000 nM | IC50 [40]: 1210 nM | IC50 [41]: 116 nM | IC50 [43]: 1260 nM | IC50 [52]: > 2000 nM | IC50 [44]: 881 nM | IC50 [45]: > 2000 nM | IC50 [53]: > 2000 nM | IC50 [47]: > 2000 nM
